system: NBD1/3D; experiment: Aggregation analysis using differential static light scattering (DSLS), NBD1 thermal stability; type: binding, Human; settings: ΔTagg versus DMSO control; compound at 100 μM
In short: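 Thermal stabilisation reported as ΔTagg, i.e. aggregation temperature relative to averaged DMSO wells. Tagg came from the inflection of differential static light scattering imaged 25–70 °C while NBD1 (0.2 mg/ml, Tris pH 7.6 buffer containing ATP, MgCl2, DTT, glycerol) was ramped 1 °C/min.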

Compound	DSLS NBD1/3D Human Stability delta-T (° C.) @ 100 (μM)
CC(O)(c1cccc(/C=C2\SC(=O)NC2=O)c1)c1cnc(-c2cccc(Oc3c(F)cc4[nH]ccc4c3F)c2)[nH]1 (centres unmarked) [Example 210, (Z)-5-(3-(1-(2-(3-((4,6-Difluoro-1H-indol-5-yl)oxy)phenyl)-1H-imidazol-5-yl)-1-hydroxyethyl)benzylidene)thiazolidine-2,4-dione]	B (B: 5-10° C.)
CC(O)(c1cccc(CC2SC(=O)NC2=O)c1)c1cnc(-c2cccc(Oc3c(F)cc4[nH]ccc4c3F)c2)[nH]1 (centres unmarked) [Example 211, 5-(3-(1-(2-(3-((4,6-Difluoro-1H-indol-5-yl)oxy)phenyl)-1H-imidazol-5-yl)-1-hydroxyethyl)benzyl)thiazolidine-2,4-dione]	B (B: 5-10° C.)
CC(=O)NS(=O)(=O)Cc1cccc(C(C)(O)c2cnc(-c3cccc(Oc4c(F)cc5[nH]ccc5c4F)c3)[nH]2)c1 (centres unmarked) [Example 212, N-((3-(1-(2-(3-((4,6-Difluoro-1H-indol-5-yl)oxy)phenyl)-1H-imidazol-5-yl)-1-hydroxyethyl)benzyl)sulfonyl)acetamide]	B (B: 5-10° C.)
Cc1c(Oc2ccc(F)c(-c3ncc(C(C)c4cccc(CCC(=O)O)c4)[nH]3)c2)c(F)cc2[nH]ccc12 (centres unmarked) [Example 213, 3-(3-(1-(2-(2-Fluoro-5-((6-fluoro-4-methyl-1H-indol-5-yl)oxy)phenyl)-1H-imidazol-5-yl)ethyl)phenyl)propanoic acid]	B (B: 5-10° C.)
C=C(c1cccc(CCC(=O)O)c1)c1cnc(-c2cc(Oc3c(F)cc4[nH]ccc4c3C)ccc2F)[nH]1 [Example 214, 3-(3-(1-(2-(2-Fluoro-5-((6-fluoro-4-methyl-1H-indol-5-yl)oxy)phenyl)-1H-imidazol-5-yl)vinyl)phenyl)propanoic acid]	C (C: ≤5° C.)
Cc1nc(-c2cc(Oc3c(F)cc4[nH]ccc4c3C)ccc2F)[nH]c1C(O)c1cccc(CCC(=O)O)c1 (centres unmarked) [Example 217, 3-(3-((2-(2-Fluoro-5-((6-fluoro-4-methyl-1H-indol-5-yl)oxy)phenyl)-4-methyl-1H-imidazol-5-yl)(hydroxy)methyl)phenyl)propanoic acid]	B (B: 5-10° C.)
CC(O)(c1cccc(CCC(=O)O)c1)c1c[nH]c(-c2cc(C(O)c3ccc4[nH]ccc4c3)ccc2F)n1 (centres unmarked) [Example 218, 3-(3-(1-(2-(2-Fluoro-5-(hydroxy(1H-indol-5-yl)methyl)phenyl)-1H-imidazol-4-yl)-1-hydroxyethyl)phenyl)propanoic acid]	B (B: 5-10° C.)
C[C@@H](O)C(=O)N1Cc2ccc(C(C)(O)c3cnc(-c4cccc(Oc5c(F)cc6[nH]ccc6c5F)c4)[nH]3)cc2C1 (stereo partly drawn) [Example 219, (2R)-1-(5-(1-(2-(3-((4,6-Difluoro-1H-indol-5-yl)oxy)phenyl)-1H-imidazol-5-yl)-1-hydroxyethyl)isoindolin-2-yl)-2-hydroxypropan-1-one]	C (C: ≤5° C.)
CC(O)(c1cc(F)cc(CCC(=O)O)c1)c1c[nH]c(-c2cc(Oc3c(F)cc4[nH]ccc4c3F)ccc2F)n1 (centres unmarked) [Example 220, 3-(3-(1-(2-(5-((4,6-Difluoro-1H-indol-5-yl)oxy)-2-fluorophenyl)-1H-imidazol-4-yl)-1-hydroxyethyl)-5-fluorophenyl)propanoic acid]	B (B: 5-10° C.)
CC(=O)CCc1cc(F)cc(C(C)(O)c2c[nH]c(-c3cc(Oc4c(F)cc5[nH]ccc5c4F)ccc3F)n2)c1 (centres unmarked) [Example 221, 4-(3-(1-(2-(5-((4,6-Difluoro-1H-indol-5-yl)oxy)-2-fluorophenyl)-1H-imidazol-4-yl)-1-hydroxyethyl)-5-fluorophenyl)butan-2-one]	C (C: ≤5° C.)
Cc1c(Oc2cccc(-c3ncc(C(C)(O)c4cccc(C5CC5C(=O)O)c4)[nH]3)c2)ccc2[nH]ccc12 (centres unmarked) [Example 222, 2-(3-(1-hydroxy-1-(2-(3-((4-methyl-1H-indol-5-yl)oxy)phenyl)-1H-imidazol-5-yl)ethyl)phenyl)cyclopropane-1-carboxylic acid]	B (B: 5-10° C.)
CCC(O)(c1cccc(CCC(=O)O)c1)c1cnc(-c2cc(Oc3c(F)cc4[nH]ccc4c3C)ccc2F)[nH]1 (centres unmarked) [Example 223, 3-(3-(1-(2-(2-fluoro-5-((6-fluoro-4-methyl-1H-indol-5-yl)oxy)phenyl)-1H-imidazol-5-yl)-1-hydroxypropyl)phenyl) propanoic acid]	B (B: 5-10° C.)
Cc1c(Oc2ccc(F)c(-c3ncc(C(O)(c4cccc(CCC(=O)O)c4)C(C)C)[nH]3)c2)c(F)cc2[nH]ccc12 (centres unmarked) [Example 224, 3-(3-(1-(2-(2-fluoro-5-((6-fluoro-4-methyl-1H-indol-5-yl)oxy)phenyl)-1H-imidazol-5-yl)-1-hydroxy-2-methylpropyl)phenyl) propanoic acid]	B (B: 5-10° C.)
CCCC(O)(c1cccc(CCC(=O)O)c1)c1c[nH]c(-c2cc(Oc3c(F)cc4[nH]ccc4c3C)ccc2F)n1 (centres unmarked) [Example 225, 3-(3-(1-(2-(2-fluoro-5-((6-fluoro-4-methyl-1H-indol-5-yl)oxy)phenyl)-1H-imidazol-4-yl)-1-hydroxybutyl)phenyl) propanoic acid]	B (B: 5-10° C.)
CCCCC(O)(c1cccc(CCC(=O)O)c1)c1c[nH]c(-c2cc(Oc3c(F)cc4[nH]ccc4c3C)ccc2F)n1 (centres unmarked) [Example 226, 3-(3-(1-(2-(2-fluoro-5-((6-fluoro-4-methyl-1H-indol-5-yl)oxy)phenyl)-1H-imidazol-4-yl)-1-hydroxypentyl)phenyl) propanoic acid]	B (B: 5-10° C.)
CC1(C)COC(c2cccc(CCC(=O)O)c2)(c2cnc(-c3cc(Oc4c(F)c(F)c5[nH]ccc5c4F)ccc3F)[nH]2)OC1 [Example 227, 3-(3-(2-(2-(2-Fluoro-5-((4,6,7-trifluoro-1H-indol-5-yl)oxy)phenyl)-1H-imidazol-5-yl)-5,5-dimethyl-1,3-dioxan-2-yl)phenyl)propanoic acid]	A (A: T ≥ 10° C.)
O=C(O)CCc1cccc(C2(c3cnc(-c4cc(Oc5c(F)cc6[nH]ccc6c5F)ccc4F)[nH]3)OCCCO2)c1 [Example 228, 3-(3-(2-(2-(5-((4,6-difluoro-1H-indol-5-yl)oxy)-2-fluorophenyl)-1H-imidazol-5-yl)-1,3-dioxan-2-yl)phenyl)propanoic acid]	A (A: T ≥ 10° C.)
O=C(O)CCc1cccc(C2(c3cnc(-c4cc(Oc5c(F)cc6[nH]ccc6c5F)ccc4F)[nH]3)OCCO2)c1 [Example 229, 3-(3-(2-(2-(5-((4,6-difluoro-1H-indol-5-yl)oxy)-2-fluorophenyl)-1H-imidazol-5-yl)-1,3-dioxolan-2-yl)phenyl)propanoic acid]	A (A: T ≥ 10° C.)
Cc1c(Oc2ccc(F)c(-c3ncc(C4(c5cccc(CCC(=O)O)c5)OCC(C)(C)CO4)[nH]3)c2)c(F)cc2[nH]ccc12 [Example 230, 3-(3-(2-(2-(2-fluoro-5-((6-fluoro-4-methyl-1H-indol-5-yl)oxy)phenyl)-1H-imidazol-5-yl)-5,5-dimethyl-1,3-dioxan-2-yl)phenyl)propanoic acid]	A (A: T ≥ 10° C.)
Cc1c(Oc2ccc(F)c(-c3nc(C4(c5cccc(CCC(=O)O)c5)OCCCO4)c[nH]3)c2)c(F)cc2[nH]ccc12 [Example 231, 3-(3-(2-(2-(2-fluoro-5-((6-fluoro-4-methyl-1H-indol-5-yl)oxy)phenyl)-1H-imidazol-4-yl)-1,3-dioxan-2-yl)phenyl)propanoic acid]	A (A: T ≥ 10° C.)
Cc1c(Oc2ccc(F)c(-c3nc(C4(c5cccc(CCC(=O)O)c5)OCCO4)c[nH]3)c2)c(F)cc2[nH]ccc12 [Example 232, 3-(3-(2-(2-(2-fluoro-5-((6-fluoro-4-methyl-1H-indol-5-yl)oxy)phenyl)-1H-imidazol-4-yl)-1,3-dioxolan-2-yl)phenyl)propanoic acid]	B (B: 5-10° C.)
COCCOCCOC(C)(c1cccc(CCC(=O)O)c1)c1cnc(-c2cc(Oc3c(F)cc4[nH]ccc4c3C)ccc2F)[nH]1 (centres unmarked) [Example 233, 3-(3-(1-(2-(2-Fluoro-5-((6-fluoro-4-methyl-1H-indol-5-yl)oxy)phenyl)-1H-imidazol-5-yl)-1-(2-(2-methoxyethoxy)ethoxy)ethyl)phenyl)propanoic acid]	B (B: 5-10° C.)
COCCOC(C)(c1cccc(CCC(=O)O)c1)c1cnc(-c2cc(Oc3c(F)c(F)c4[nH]ccc4c3C)ccc2F)[nH]1 (centres unmarked) [Example 234, 3-(3-(1-(2-(5-((6,7-difluoro-4-methyl-1H-indol-5-yl)oxy)-2-fluorophenyl)-1H-imidazol-5-yl)-1-(2-methoxyethoxy)ethyl)phenyl) propanoic acid]	B (B: 5-10° C.)
Cc1c(Oc2ccc(F)c(-c3ncc(C(OCCO)c4cccc(CCC(=O)O)c4)[nH]3)c2)c(F)cc2[nH]ccc12 (centres unmarked) [Example 235, 3-(3-((2-(2-fluoro-5-((6-fluoro-4-methyl-1H-indol-5-yl)oxy)phenyl)-1H-imidazol-5-yl)(2-hydroxyethoxy)methyl)phenyl) propanoic acid]	B (B: 5-10° C.)
COCCOC(c1cccc(CCC(=O)O)c1)c1cnc(-c2cc(Oc3c(F)cc4[nH]ccc4c3C)ccc2F)[nH]1 (centres unmarked) [Example 236, 3-(3-((2-(2-fluoro-5-((6-fluoro-4-methyl-1H-indol-5-yl)oxy)phenyl)-1H-imidazol-5-yl)(2-methoxyethoxy)methyl)phenyl) propanoic acid]	B (B: 5-10° C.)
COC(c1cccc(CCC(=O)O)c1)c1cnc(-c2cc(Oc3c(F)cc4[nH]ccc4c3C)ccc2F)[nH]1 (centres unmarked) [Example 237, 3-(3-((2-(2-fluoro-5-((6-fluoro-4-methyl-1H-indol-5-yl)oxy)phenyl)-1H-imidazol-5-yl)(methoxy)methyl)phenyl) propanoic acid]	B (B: 5-10° C.)
